Consider 3 compounds from patent US6420341B1, “Sulphur derivatives with a retroamide bond as endothelin-converting enzyme inhibitors” (Aventis Pharma S.A., priority 1996, dated 2002).

The assay concerns the target T1, endothelin-converting enzyme (ECE) (Homo sapiens, UniProt P42892).
T1 sequence (P42892 1-770): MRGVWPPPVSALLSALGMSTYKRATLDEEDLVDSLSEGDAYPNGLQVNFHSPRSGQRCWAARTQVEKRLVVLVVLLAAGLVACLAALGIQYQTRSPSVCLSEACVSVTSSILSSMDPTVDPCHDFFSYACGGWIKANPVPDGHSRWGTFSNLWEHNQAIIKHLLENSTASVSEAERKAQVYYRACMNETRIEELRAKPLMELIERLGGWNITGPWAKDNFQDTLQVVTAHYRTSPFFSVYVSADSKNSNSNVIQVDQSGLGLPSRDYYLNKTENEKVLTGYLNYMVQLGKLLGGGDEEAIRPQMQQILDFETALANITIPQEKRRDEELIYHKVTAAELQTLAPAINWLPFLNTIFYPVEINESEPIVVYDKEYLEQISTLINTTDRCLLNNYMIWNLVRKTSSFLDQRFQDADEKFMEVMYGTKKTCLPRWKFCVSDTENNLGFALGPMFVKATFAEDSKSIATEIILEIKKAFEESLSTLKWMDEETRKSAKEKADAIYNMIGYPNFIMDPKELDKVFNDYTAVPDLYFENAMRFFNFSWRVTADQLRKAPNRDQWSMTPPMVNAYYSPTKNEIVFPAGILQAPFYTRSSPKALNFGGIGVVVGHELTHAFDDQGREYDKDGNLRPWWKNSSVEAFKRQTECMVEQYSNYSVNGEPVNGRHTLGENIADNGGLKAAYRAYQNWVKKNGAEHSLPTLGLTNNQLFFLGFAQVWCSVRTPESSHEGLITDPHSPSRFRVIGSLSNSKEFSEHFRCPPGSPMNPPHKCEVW
As to the kind of experiment: Determination of the inhibitory activity of the endothelin-converting enzyme (ECE), cleavage of (2,3-3H)propionyl-b-ET-1(19-35). Format: biochemical. The conditions noted are these: purified ECE, pre-incubation 30 minutes at 37° C., Tris maleate buffer pH=6.5, incubation one hour at 37° C.; read-out: IC50 (concentration which causes a 50% inhibition of ECE). An excerpt:
A test is used, in which the product (2,3-^3H)propionyl-b-ET-1(19-35) prepared as indicated below in a) is cleaved by ECE into the product (2,3-^3H)propionyl-b-ET-1(19-21) in the presence of product P of which the inhibitory activity of ECE one wishes to determine as indicated below in b): the inhibitory activity of ECE of the product P will therefore be accordingly as high as the quantity of product of formula (II) formed, determined by counting the radioactivity, will be low. The operation is carried out as follows:
10 μl of ECE i.e. 1 to 2 μg of purified ECE are pre-incubated for 30 minutes at 37° C., in 400 μl of a 50 mM Tris maleate buffer pH=6.5, 20 μl of 5M sodium chloride and 5 μl of product P the inhibitory activity of which one wishes to test, in solution at different concentrations (comprised between […]) (i.e. final concentrations in product P of 10 nM to 1 mM).
The reaction is initiated by the addition of 10 μl of (2,3-^3H)propionyl-b-ET-1(19-35) prepared as indicated above in a), at a final concentration of 1.8.10^−12M.
After incubation for one hour at 37° C., the reaction is stopped by the addition of 600 μl of ethyl acetate and the (2,3-^3H)propionyl-b-ET-1(19-21) is extracted by mechanical agitation for 2 minutes.
300 μl of the organic phase is removed, 5 ml of liquid scintillator is added and the radioactivity is counted for 1 minute with a liquid scintillation counter.
Each measurement is carried out in triplicate except for the ECE control (control enzyme, without the product the ECE inhibitory activity of which one wishes to test), for which the measurement is carried out six times.
The percentage inhibition is calculated by establishing the relationship: [formula]
The blank is carried out starting with the solution obtained without enzyme.
From the cpm's obtained and by plotting the graph of the percentage of inhibition relative to the concentration of inhibitor (nM), the IC50 is calculated which therefore corresponds to the concentration which causes a 50% inhibition of ECE.

Turning to `N#Cc1ccccc1-c1ccc(CC(C(=O)O)C(=O)N[C@@H](CS)Cc2ccccc2)cc1` (mixture of isomers) [Example 4, 2′-cyano-alpha-[[[1-(mercaptomethyl)-2-phenylethyl]amino]carbonyl]-(1,1′-biphenyl)-4-propanoic acid], the IC50 came to 0.03 µM.
For `O=C(CCCCCCCCCCOc1ccccc1)N[C@@H](CS)Cc1ccccc1` [Example 6] the value was 0.22 µM; for `N#Cc1ccccc1-c1ccc(CC(C(=O)O)C(=O)NC(CS)Cc2ccc(OS(=O)(=O)C(F)(F)F)cc2)cc1` (stereo not drawn) [Example 10, 2′-Cyano-alpha-[[[1-(mercaptomethyl) 2-(paratrifluoromethylsulphonyloxy)phenylethyl]amino]carbonyl](1,1′-biphenyl) 4-propanoic acid], 0.15 µM.
